Experimental data as given in patent US4304778A, “4-Aminoquinazoline derivatives having fungicidal, anti-insect and acaricidal properties” (Sankyo Company Limited, priority 1978, dated 1981).

Key:
[1] = test system: third instar larvae of the tobacco cutworm; assay: Repellent action against the third instar larvae of the tobacco cutworm; format: in vivo; set-up: key: -: no ingestion; ±: very little ingestion; +: some ingestion; ++: considerable ingestion; details: cabbage leaves dipped in 500 ppm, 72 hours
Text: (§1) In the following Examples, wettable powders prepared according to the procedures of Example 4 were used, each powder containing 50% by weight of the active compound of this invention.
Cabbage leaves were dipped for 30 seconds in an aqueous suspension containing 500 ppm of one of the active compounds shown in Table 6. After air-drying, each leaf was placed into a plastic receptacle having a diameter of 8 cm and the third instar larvae (10 per receptacle) of the tobacco cutworm were released onto the leaves. After 72 hours, the extent of ingestion of the leaves was measured, using two receptacles for each test compound. The results are shown in Table 6, using the following notation (which is also employed, with the same meaning, in following Table 9): […]

[2] = test system: final instar larvae of the diamondback moth (Plutella xylostella); assay: Repellent and emergence-inhibition effect on the final instar larvae of diamondback moths; format: in vivo; set-up: key to Extent of ingestion: -: no ingestion; ±: very little ingestion; +: some ingestion; ++: considerable ingestion; details: 72 hours; for pest or weed control at 500 ppm: Plutella xylostella, read-out: Emergence-inhibition rate (%); for Extent of ingestion: radish leaves dipped in 500 ppm
Text: as §1
Leaves of the Japanese radish (Raphanus sativus) were dipped for 30 seconds into a liquid containing 500 ppm of one of the compounds shown in Table 9. After air-drying the leaves, each leaf was placed into a plastic icecream cup (diameter 8 cm) and 15 final instar larvae of the diamondback moth (Plutella xylostella) were placed into each cup. Each test was conducted in duplicate and the results were averaged.

[3] = test system: Phytophthora infestans; format: in vivo; details: tomato late blight; 500 ppm; after 5 days; average per leaf
[4] = test system: cockroach larvae; details: 24 hours; 25° C.
[5] = test system: Piricularia oryzae; format: in vivo; details: rice blast; 500 ppm spray; mean, upper two leaves
[6] = test system: guppies; assay: Toxicity to guppies; format: in vivo; details: LC50 after 48 hours classified
Experimental: In this example the toxicity of the compounds of the invention towards guppies was estimated and is compared with that of corresponding compounds as disclosed and claimed in our co-pending U.S. Application No. 910,117 filed May 30, 1978. The LC50 was determined after 48 hours and the toxicity to guppies was classified into the rankings (i), (ii) and (iii) according to the following classification scheme: […]

[7] = test system: Sphaerotheca fuliginea; assay: Effect on powdery mildew in cucumbers; format: in vivo; details: cucumber powdery mildew; 500 ppm; 10 days
Experimental: as §1
Cucumber seedlings (variety Sagamihanshiro), planted two per 12 cm diameter pot, were used as host plants at the stage when the first leaf was fully grown and open. Each test group of three pots was treated with one of the active compounds shown in Table 5 by spraying an aqueous suspension containing 500 ppm of the active compound onto the plants at the rate of 20 ml per 3 pots. After air-drying the plants, the host plants were inoculated with the microorganism Sphaerotheca fuliginea by brushing already infected cucumber leaves with a small brush and letting the microorganism fall onto the host plants. The inoculated plants were kept in a greenhouse at 24°-26° C. for 10 days. At the end of this time, the percentage diseased area was measured.

[8] = test system: Colletotrichum lagenarium; assay: Effect on anthracnose in cucumbers; format: in vivo; details: cucumber anthracnose; 500 ppm; seven days; cotyledon and first leaf
Experimental: as §1
Groups of cucumber plants (variety Sagamihanshiro) were planted, two per pot, in a series of Wagner pots (diameter 12 cm) and were used as host plants when the first leaf was fully grown and open. Each test group of three pots was treated with one of the active compounds shown in Table 4 by spraying an aqueous suspension containing 500 ppm of the active compound onto the plants at the rate of 30 ml per 3 pots. After air-drying the plants, a spore suspension of the pathogenic microorganism Colletotrichum lagenarium was sprayed onto the plants and the plants were kept in a wet room for 24 hours at 20°-22° C. and 100% relative humidity. The pots were then placed in a greenhouse at 26° C. and, seven days after the spore suspension had been sprayed on, the percentage diseased area of the cotyledon and the first leaf was calculated.

[9] = test system: cotton aphid (Aphis gossyppi); assay: Effect on the cotton aphid on cucumbers; format: in vivo; details: 600 ppm; 5 sprayings Sept. 25 to Oct. 30; examined Nov. 9; untreated control 8.7
Text: as §1
Cucumbers (variety "Tokiwa Hikari No. 3, Type P") were transplanted into a plastic greenhouse on September 12. Using a shoulder sprayer, a liquid containing 600 ppm of one of the compounds shown in Table 11 was sprayed on the surface and reverse side of the leaves on Sept. 25, Oct. 9, 16, 23 and 30. On Nov. 9, the effect on the cotton aphid (Aphis gossyppi) was investigated, sampling 25-30 leaves at random from each test area and calculating the number of colonies on each leaf; there were generally 50-100 aphids per colony. The results are shown as the number of colonies per leaf in Table 11, which also gives the results for a test area where no compound of the invention was applied.

Structure (SMILES)	Extent of ingestion [1]	pest or weed control at 500 ppm [2]	Extent of ingestion [2]	Diseased area (%) [3]	Mortality rate (%), 0.5mg test cpd/10 cockroaches/bottle [4]	Mortality rate (%), 1mg test cpd/10 cockroaches/bottle [4]	No. of disease spots per leaf [5]	Toxicity ranking [6]	Diseased area (%) [7]	Diseased area (%) [8]	No. of colonies per leaf [9]
Cc1ccc(OCCN(C)c2ncnc3ccccc23)c(C)c1 [compound 17, 4-{N-[2-(2,4-dimethylphenoxy)ethyl]-N-methylamino}-quinazoline]	+	50%	± to +	9%	90%	100%	2.4 spots per leaf	ii (all fish dead at 10 ppm but alive at 0.5 ppm)	0%		
Cc1cc(Cl)ccc1OCCN(C)c1ncnc2ccccc12 [compound 22, 4-{N-[2-(4-chloro-2-methylphenoxy)ethyl]-N-methylamino}quinazoline]	± to +	80%	±	15%	80%	100%			0%	0%	1.1 colonies per leaf
CCCCCCCCc1ccc(OCCN(C)c2ncnc3ccccc23)c(C)c1 [compound 58, 4-{N-methyl-N-[2-(2-methyl-4-octylphenoxy)ethyl]amino}quinazoline]	± to +	85%	±	10%	90%	100%					0.5 colonies per leaf
CC(C)c1ccccc1OCCN(C)c1ncnc2ccccc12 [compound 15, 4-{N-[2-(2-isopropylphenoxy)ethyl]-N-methylamino}quinazoline]	± to +	60%	±	0%	80%	100%	3.0 spots per leaf	ii (all fish dead at 10 ppm but alive at 0.5 ppm)	0%		
Cc1ccc(C(C)C)cc1OCCN(C)c1ncnc2ccccc12 [Compound No. 21, 4-{N-[2-(5-isopropyl-2-methylphenoxy)ethyl]-N-methylamino}quinazoline]	+	90%	±	12%	90%	100%			0%	0%	1.0 colonies per leaf
